Measured values reported in US20100029622A1, “MICROEMULSIONS” (NEUROSCIENZE PHARMANESS S.C.A.R.L., priority 2008, published 2010).

What was measured:
[1] = target: T1, opioidergic receptors μ (Mus musculus, UniProt P42866); assay: Radioreceptorial binding, receptors μ ([3H]-DAMGO displacement, brain membranes); design: species or system mice; conditions: 1 nM [3H]-DAMGO, 25° C.
T1 construct: from tissue; host or cells: CD1 mouse total brain (excluding the cerebellum) membranes

[2] = target: T2, opioidergic receptors δ (Mus musculus, UniProt P32300); assay: Radioreceptorial binding, receptors δ ([3H]-DPDPE displacement, brain membranes); design: species or system mice; conditions: 1 nM [3H]-DPDPE, 25° C.
T2 construct: from tissue; host or cells: CD1 mouse total brain (excluding the cerebellum) membranes

[3] = target: T3, opioidergic receptors k (Mus musculus, UniProt P33534); assay: Radioreceptorial binding, receptors k (3H-U 69.593, brain membranes); design: species or system mice; conditions: 3H-U 69.593, 25° C.
T3 construct: the complete brain (excluding the cerebellum) was quickly dissected and kept in ice; from tissue; host or cells: CD1 mouse complete brain (excluding the cerebellum) homogenate/membranes
Source text: The affinity of the compounds synthesized in the preceding examples towards the opioidergic receptors μ, δ, k has been evaluated in vitro by radioreceptorial binding studies by using the method reported hereinunder.
The experimentation has been carried out according to the guide lines of the European Community for the animal experimentation (EEC n. 86/609), by using laboratory animals (male mices CD1 Charles River Italy, Calco, LC, Italy) lodged twenty in a cage, under standard stabulation conditions (temperature 22±2° C., relative humidity 60%, artificial light with a light/dark cycle of 12 hours). The food and water were at disposal ad libitum.
Receptors k: CD1 male mice weighing 20-25 g were used. The animals were sacrificed by cervical dislocation and the complete brain (excluding the cerebellum) was quickly dissected and kept in ice. The tissue was homogeneized in 40 volumes (w/v) of Tris-HCl buffer (50 mM, pH 7.4) by an Ultra-Turrax, then centrifuged for 20 minutes at 48,000×g in a centrifuge kept at 4° C. The resulting […] was suspended again in the same buffer and incubated at 37° C. for 30 minutes in a bath kept under oscillation. At the end of the incubation the suspension was centrifuged 48,000×g for 15 minutes and the pellets suspended again in 10 volumes of the Tris-HCl buffer. The binding experiment was carried out in a volume of 1 ml at the temperature of 25° C. with about 800-1000 μg of proteins for sample. The incubation was carried out for 60 minutes in the,presence of different concentrations of the ligand ^3H-U 69.593 (41.7 Ci/mmole). The non specific binding was determined in the presence of U69593 (10 μM). The incubation was stopped by quick filtering by means of a filtration instrument (Brandell®, Gaithersburg, Md., USA) by using GF/C filters (Whatman®).
The radioactivity was determined by a scintillator in liquid phase (Tricarb® 2100, Packard, Meridien, Ill., USA), by using three ml of scintillating fluid (Ultima Cold MV, Packard, Meridien, Ill., USA).
The protein determination was carried out by the Bradford method (1976) by using the protocol and the reactants supplied by Bio-Rad (Milano, Italy).
The affinity of the compounds towards the receptors μ, δ, κ has been expressed in Ki terms.

T1 sequence (P42866 whole entry): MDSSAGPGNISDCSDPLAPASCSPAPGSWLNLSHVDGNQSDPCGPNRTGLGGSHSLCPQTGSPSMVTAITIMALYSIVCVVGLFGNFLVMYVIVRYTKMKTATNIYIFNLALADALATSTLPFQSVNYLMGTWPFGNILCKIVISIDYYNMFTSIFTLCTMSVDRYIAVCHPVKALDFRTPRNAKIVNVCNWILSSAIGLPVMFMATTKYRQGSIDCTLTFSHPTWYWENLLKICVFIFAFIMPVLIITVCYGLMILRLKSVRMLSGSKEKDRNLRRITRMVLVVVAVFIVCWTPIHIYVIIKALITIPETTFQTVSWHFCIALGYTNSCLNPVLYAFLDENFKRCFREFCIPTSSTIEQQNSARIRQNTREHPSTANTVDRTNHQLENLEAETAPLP
T3 sequence (P33534 whole entry): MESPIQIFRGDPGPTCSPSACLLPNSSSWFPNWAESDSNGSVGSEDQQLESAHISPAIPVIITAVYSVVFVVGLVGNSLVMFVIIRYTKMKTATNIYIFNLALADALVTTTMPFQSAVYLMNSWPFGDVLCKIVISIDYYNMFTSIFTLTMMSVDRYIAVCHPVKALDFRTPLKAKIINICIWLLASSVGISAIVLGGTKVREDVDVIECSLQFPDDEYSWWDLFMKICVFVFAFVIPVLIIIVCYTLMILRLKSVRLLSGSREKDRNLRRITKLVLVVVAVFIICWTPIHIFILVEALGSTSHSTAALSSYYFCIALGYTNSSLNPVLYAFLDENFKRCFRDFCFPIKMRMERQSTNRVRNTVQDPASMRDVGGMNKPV
T2 sequence (P32300 whole entry): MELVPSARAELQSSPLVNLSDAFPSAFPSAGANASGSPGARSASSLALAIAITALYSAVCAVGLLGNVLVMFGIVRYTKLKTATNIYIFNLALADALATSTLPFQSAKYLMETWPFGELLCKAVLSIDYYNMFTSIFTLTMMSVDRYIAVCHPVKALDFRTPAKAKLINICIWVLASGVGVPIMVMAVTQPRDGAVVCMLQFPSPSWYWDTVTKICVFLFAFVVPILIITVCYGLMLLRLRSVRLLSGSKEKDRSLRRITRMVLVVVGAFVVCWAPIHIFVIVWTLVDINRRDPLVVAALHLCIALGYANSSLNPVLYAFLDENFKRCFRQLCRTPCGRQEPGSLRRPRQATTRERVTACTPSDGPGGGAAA

SMILES | Ki [1] [nM] | Ki [2] [nM] | Ki [3] [nM] | melting point [°C]
CCC(=O)N1CCC2CCCC(C1)N2C/C=C(\C)c1ccccc1 (stereo not drawn) [I-Ca] | 17 ± 1.3 | 1670 ± 166 | 410 ± 10 | 106 to 108
CCC(=O)N1C2CCC1CN(CC=C(c1ccccc1)c1ccccc1)CC2 (stereo not drawn) [I-Bd] | 20.7 ± 2.33 | 333 ± 5 | 1130 ± 186 | 184 to 186
CCC(=O)N1CCC2CCC(C1)N2CC=C(c1ccccc1)c1ccccc1 (stereo not drawn) [I-Ad] | 10.7 ± 0.3 | 142 ± 25 | 103 ± 7 | 176 to 177
CCC(=O)N1C2CCC1CN(C/C=C(\C)c1ccc(Cl)c(Cl)c1)CC2 (stereo not drawn) [I-Bb] | 4.1 ± 0.35 | 850 ± 58 | 393 ± 23 | 186 to 188
CCC(=O)N1CCC2CCCC(C1)N2C/C=C(\C)c1ccc(Cl)c(Cl)c1 (stereo not drawn) [I-Cb] | 4.25 ± 0.3 | 1120 ± 216 | 425 ± 38 | 184 to 185
CCC(=O)N1C2CCCC1CN(CC=C(c1ccccc1)c1ccccc1)CC2 (stereo not drawn) [I-Dc] | 23.3 ± 1.6 | 1690 ± 312 | 1930 ± 233 | 169 to 170
CCC(=O)N1CCC2CCC(C1)N2C/C=C(\C)c1ccc(Cl)c(Cl)c1 (stereo not drawn) [I-Ab] | 7 ± 1.5 | 867 ± 44 | 100 ± 5 | 188 to 189
CCC(=O)N1CCC2CCC(C1)N2C/C=C(\C)c1ccccc1 (stereo not drawn) [I-Aa] | 5.7 ± 1 | 425 ± 25 | 55 ± 25 | 230 to 232
CCC(=O)N1CCC2CCCC(C1)N2CC=C(c1ccccc1)c1ccccc1 (stereo not drawn) [I-Cc] | 3.16 ± 0.6 | 187 ± 29.7 | 40 ± 0.1 | 137 to 139
CCC(=O)N1C2CCCC1CN(C/C=C(\C)c1ccc(Cl)c(Cl)c1)CC2 (stereo not drawn) [I-Db] | 17.5 ± 1.4 | 3250 ± 166 | 1170 ± 120 | 175 to 176
CCC(=O)N1C2CCCC1CN(C/C=C(\C)c1ccccc1)CC2 (stereo not drawn) [I-Da] | 40 ± 2.8 | 3870 ± 125 | 1470 ± 317 | 144 to 146
CCC(=O)N1C2CCC1CN(C/C=C(\C)c1ccccc1)CC2 (stereo not drawn) [I-Ba] | 8.3 ± 1.2 | 933 ± 33 | 900 ± 100 | 228 to 230
